Measured values from patent US5298523A, “Method for treating transplant patients using mycalamide compounds” (priority 1992, dated 1994).
Read-outs that look alike come from different tables or passages of the source.

Assays:
murine splenocytes = assay: Mitogen-induced proliferation of murine splenocytes; format: cell-based; details: for activity at 0.5 µg/mL / activity at 0.05 µg/mL / activity at 0.005 µg/mL / activity at 0.0005 µg/mL / activity at 50 pg/mL: Mus musculus, Splenocyte; for activity at 0.5 µg/mL: 5.0 × 10^-1 μg/ml; for activity at 0.05 µg/mL: 5.0 × 10^-2 μg/ml; for activity at 0.005 µg/mL: 5.0 × 10^-3 μg/ml; for activity at 0.0005 µg/mL: 5.0 × 10^-4 μg/ml; for activity at 50 pg/mL: 5.0 × 10^-5 μg/ml
Protocol: Preparation of splenocyte cell suspensions. […] The resulting supernatant was then transferred to another sterile centrifuge tube, and the cell concentration adjusted to 2×10^6 cells/ml dilution with TCM.
Mitogen studies. The effects of mycalamide A on the mitogen-induced proliferation of murine splenocytes was investigated. Splenocytes (2×10^5 /well) from C57BL/6J or BALB/c mice were incubated with 1.0 μg/ml of Con A, 10 μg/ml of phytohemagglutinin (PHA), lipopolysaccharide (LPS) or pokeweed mitogen (PWM) and various concentrations of mycalamide A at 37° C. in a 5% CO2, humidified atmosphere for 90 hours. A volume of […] of a 20.0 μCi/ml of ^3 H-thymidine was added to each well, and the plates incubated for an additional 6 hours. Plates were harvested, and ^3 H-thymidine incorporation determined by counting samples in a liquid scintillation counter.

[1] = system: graft vs. host reaction, CB6F1 mice grafted with BALB/c splenocytes; assay: Graft vs. host reaction (Simonsen splenomegaly assay); format: in vivo, mouse; details: for % Suppression / Number of surviving mice at the end of the experiment / Stim. index: Days 1-7
Protocol: Graft vs. host reaction. In vivo studies with mycalamide A utilized the […]→F1, GVHR model (Simonsen splenomegaly assay). CB6F1 male mice, 4 weeks of age, were injected intraperitoneally with 5×10^7 splenocytes from BALB/c male mice, 8 weeks of age, on day 0 (BALB/c→CB6F1). A syngeneic control group (CB6F1 →CB6F1) was similarly prepared and served as the negative control. For experiment 1, the grafted mice were divided into 5 treatment groups of 5 mice each. Groups were injected intraperitoneally with mycalamide A (dissolved initially in ethanol followed by dilution in sterile phosphate-buffered saline as a vehicle) or vehicle alone on days 1-7. For experiment 2, the grafted mice were divided into 7 treatment groups of 5 mice each and similarly injected intraperitoneally with mycalamide A, an immunosuppressive standard, didemnin B, or vehicle alone on days 1-7. On day 7 all groups were sacrificed, spleens excised, and the mean spleen weight and stimulation index calculated for each group. The stimulation index was calculated as follows: [formula] A spleen index of 1.3 or greater is considered a positive response.
^a CB6F1 mice (5 per group) were grafted with 5 × 10^7
BALB/c splenocytes, intraperitoneally on Day 0. Groups were injected
intraperitoneally with drug or vehicle on Days 1-7. Positive indicates
grafted mice receiving vehicle alone.
^b Number of surviving mice at the end of the experiment.
^c Stimulation index (SI) = (spleen weight of test group/body weight
of test group)/(spleen weight of syngeneic group/body weight of syngeneic
^d Suppression = [(SI of positive control) (SI of test group)]/[(SI
of positive control) (SI of syngeneic group)].
^e Didemnin B immunosuppressive standard.

[2] = Con A, read-out: Con A, % of control
[3] = LPS, read-out: LPS, % of control
[4] = PHA, read-out: PHA, % of control
[5] = PWM, read-out: PWM, % of control
[6] = Experiment #2, 0.005 mg/kg i.p.

SMILES: C=C1CC(OC)(C(O)C(=O)NC2OCOC3C2OC(CC(O)CO)C(C)(C)C3OC)OC(C)C1C (stereo not shown) [Mycalamide A, mycalamide A]
- suppression of Con A, LPS, and PWM stimulation (murine splenocytes; 5×10^-5 μg/ml, Con A, LPS, PWM, in words): suppressed
- activity at 0.5 µg/mL (murine splenocytes; [2]): 0%
- activity at 0.05 µg/mL (murine splenocytes; [2]): 0%
- activity at 0.005 µg/mL (murine splenocytes; [2]): 0%
- activity at 0.0005 µg/mL (murine splenocytes; [2]): 0%
- activity at 50 pg/mL (murine splenocytes; [2]): 0%
- activity at 0.5 µg/mL (murine splenocytes; [3]): 0%
- activity at 0.05 µg/mL (murine splenocytes; [3]): 0%
- activity at 0.005 µg/mL (murine splenocytes; [3]): 0%
- activity at 0.0005 µg/mL (murine splenocytes; [3]): 0%
- activity at 50 pg/mL (murine splenocytes; [3]): 68%
- activity at 0.5 µg/mL (murine splenocytes; [4]): 0%
- activity at 0.05 µg/mL (murine splenocytes; [4]): 0%
- activity at 0.005 µg/mL (murine splenocytes; [4]): 0%
- activity at 0.0005 µg/mL (murine splenocytes; [4]): 38%
- activity at 50 pg/mL (murine splenocytes; [4]): 139%
- activity at 0.5 µg/mL (murine splenocytes; [5]): 0%
- activity at 0.05 µg/mL (murine splenocytes; [5]): 0%
- activity at 0.005 µg/mL (murine splenocytes; [5]): 0%
- activity at 0.0005 µg/mL (murine splenocytes; [5]): 0%
- activity at 50 pg/mL (murine splenocytes; [5]): 62%
- % Suppression ([1]; Experiment #1, 0.01 mg/kg i.p.): 102%
- Number of surviving mice at the end of the experiment ([1]; Experiment #1, 0.01 mg/kg i.p.): 5/5
- Stim. index ([1]; Experiment #1, 0.01 mg/kg i.p.): 0.99
- % Suppression ([1]; Experiment #1, 0.05 mg/kg i.p.): 0%
- Number of surviving mice at the end of the experiment ([1]; Experiment #1, 0.05 mg/kg i.p.): 0/5
- % Suppression ([1]; Experiment #1, 0.1 mg/kg i.p.): 0%
- Number of surviving mice at the end of the experiment ([1]; Experiment #1, 0.1 mg/kg i.p.): 0/5
- % Suppression [1, 6]: 0%
- Number of surviving mice at the end of the experiment [1, 6]: 5/5
- Stim. index [1, 6]: 1.92
- % Suppression ([1]; Experiment #2, 0.01 mg/kg i.p.): 88%
- Number of surviving mice at the end of the experiment ([1]; Experiment #2, 0.01 mg/kg i.p.): 5/5
- Stim. index ([1]; Experiment #2, 0.01 mg/kg i.p.): 1.06
- % Suppression ([1]; Experiment #2, 0.05 mg/kg i.p.): 0%
- Number of surviving mice at the end of the experiment ([1]; Experiment #2, 0.05 mg/kg i.p.): 0/5
- % Suppression ([1]; Experiment #2, 0.1 mg/kg i.p.): 0%
- Number of surviving mice at the end of the experiment ([1]; Experiment #2, 0.1 mg/kg i.p.): 0/5
- toxicity in mice ([1]; dosages higher than 0.01 mg/kg i.p., in words): toxic
- immunosuppression in GVHR ([1]; dosages lower than 0.01 mg/kg i.p., in words): not immunosuppressive
